Test results published in patent publication US10709712B2, “Biaryl amide compounds as kinase inhibitors” (NOVARTIS AG, priority 2013, dated 2020).

Tests used:
[1] = biological target: C-Raf FL (full-length C-Raf protein) (Homo sapiens (Human), UniProt P04049, Y340E/Y341E); type: biochemical; settings: Table 2, Alpha Screen phospho-MEK, reaction 1 hour, read-out: c-Raf FL IC-50
b-Raf(V600E) = b-Raf(V600E) (Homo sapiens (Human), UniProt P15056, V600E); settings: read-out: b-Raf IC-50; Table 2; Alpha Screen phospho-MEK, reaction 3 hours
Chain of b-Raf(V600E) (P15056 whole entry V600E): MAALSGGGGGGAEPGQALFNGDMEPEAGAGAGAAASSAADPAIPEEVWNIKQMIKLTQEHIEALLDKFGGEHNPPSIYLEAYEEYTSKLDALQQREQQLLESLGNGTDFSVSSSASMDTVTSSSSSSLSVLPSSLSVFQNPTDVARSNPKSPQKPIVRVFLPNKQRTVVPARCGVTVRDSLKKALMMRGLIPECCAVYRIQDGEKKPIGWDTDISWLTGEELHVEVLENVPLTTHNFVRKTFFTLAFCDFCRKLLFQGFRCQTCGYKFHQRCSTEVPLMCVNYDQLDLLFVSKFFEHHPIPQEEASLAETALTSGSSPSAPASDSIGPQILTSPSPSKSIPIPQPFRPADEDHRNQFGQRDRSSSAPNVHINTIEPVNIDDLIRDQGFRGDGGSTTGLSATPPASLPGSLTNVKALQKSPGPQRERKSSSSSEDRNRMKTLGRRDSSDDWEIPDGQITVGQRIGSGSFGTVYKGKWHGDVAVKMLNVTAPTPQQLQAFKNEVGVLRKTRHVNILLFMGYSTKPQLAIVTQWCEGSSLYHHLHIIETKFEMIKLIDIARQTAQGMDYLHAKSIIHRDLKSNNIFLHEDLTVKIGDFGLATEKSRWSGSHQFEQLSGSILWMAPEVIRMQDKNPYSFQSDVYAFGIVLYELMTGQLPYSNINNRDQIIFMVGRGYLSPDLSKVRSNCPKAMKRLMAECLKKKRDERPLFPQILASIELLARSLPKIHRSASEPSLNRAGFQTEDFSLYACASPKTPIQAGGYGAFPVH

IC50 [1] [nM] | IC50 (b-Raf(V600E)) [nM] | Compound
0.2 | – | N-(4-methyl-3-(7-morpholino-2-oxo-2,3-dihydrobenzo[d]oxazol-5-yl) phenyl)-3-(trifluoromethyl) benzamide [Example 827]
– | 0.6 | N-(4-methyl-3-(5-morpholino-6-((tetrahydro-2H-pyran-4-yl)oxy)pyridazin-3-yl) phenyl)-6-(trifluoromethyl) pyridazine-4-carboxamide [Example 577]
– | 3.7 | Cc1ncc(NC(=O)c2cccc(C(F)(F)F)c2)cc1-c1cc(N2CCOCC2)nc(NC[C@@H](C)O)n1 [Example 743, (R)—N-(5-(2-((2-hydroxypropyl)amino)-6-morpholinopyrimidin-4-yl)-6-methylpyridin-3-yl)-3-(trifluoromethyl) benzamide]
